Laboratory results: ChEMBL document CHEMBL2029257, “Copper-Free Click for PET: Rapid 1,3-Dipolar Cycloadditions with a Fluorine-18 Cyclooctyne” (ACS Med Chem Lett, 2011)

Columns and labels:
Assay type in all cases: ADME, cell-free
[1] = Metabolic stability in Sprague-Dawley rat serum assessed as compound remaining at 2 MBq at 1 hr by RP-HPLC analysis; conditions: read-out: Stability
[2] = tested on: Serum; test: (§1) Metabolic stability in Sprague-Dawley rat serum assessed as compound remaining at 2 MBq at 2 hrs by RP-HPLC analysis; conditions: 2 h
[3] = as §1; conditions: Sprague-Dawley, read-out: Stability

| remaining at 1 h, 2 MBq [1] | Stability [2] | remaining at 2 h, 2 MBq [3] | SMILES |
| --- | --- | --- | --- |
| > 98% | Stable |  | O=C(NCCCCCC(=O)N1Cc2ccccc2C#Cc2ccccc21)c1ccc([18F])cc1 |
| > 98% |  | 96.8% | O=C(O)COCC(=O)NCCOCCOCCOCCOCCOCCOCCOCCOCCn1nnc2c1-c1ccccc1CN(C(=O)CCCCCNC(=O)c1ccc([18F])cc1)c1ccccc1-2 |
